Results: patent EP4729529A1, “PREPARATION OF PEPTIDE INHIBITOR OF INTERLEUKIN-23 RECEPTOR AND USE THEREOF” (Xizang Haisco Pharmaceutical Co., Ltd., priority 2023, dated 2024)
Positions of bridges follow the written chain, without caps; N, C: chain ends. Non-standard residues stand in square brackets, D forms with d. Residues, ends and D or L forms follow the SMILES beside them. Trp(7-Me) = Cc1cccc2c(C[C@H](N)C(=O)O)c[nH]c12; 2Nal = N[C@@H](Cc1ccc2ccccc2c1)C(=O)O; AEF = NCCOc1ccc(C[C@H](N)C(=O)O)cc1; 3Pal = N[C@@H](Cc1cccnc1)C(=O)O; Cit = NC(=O)NCCC[C@H](N)C(=O)O; Pen = CC(C)(S)[C@H](N)C(=O)O; Thp = NC1(C(=O)O)CCOCC1; Sar = CNCC(=O)O

What was measured:
IL-23α/IL-12β and IL-23R = molecular target: T1, IL-23α/IL-12β and IL-23R (Homo sapiens, UniProt Q5VWK5); experiment: IL-23α/IL-12β and IL-23R binding assay (TR-FRET/HTRF); conditions: inhibition of the binding of IL-23α/IL-12β to IL-23R, TR-FRET; both proteins 0.3 nM
T1 construct: purchased ACRO ILR-H82F3 (IL-23R); ILB-H52W5 (IL-23α/IL-12β)
T1 sequence (Q5VWK5 24-353 limits assumed): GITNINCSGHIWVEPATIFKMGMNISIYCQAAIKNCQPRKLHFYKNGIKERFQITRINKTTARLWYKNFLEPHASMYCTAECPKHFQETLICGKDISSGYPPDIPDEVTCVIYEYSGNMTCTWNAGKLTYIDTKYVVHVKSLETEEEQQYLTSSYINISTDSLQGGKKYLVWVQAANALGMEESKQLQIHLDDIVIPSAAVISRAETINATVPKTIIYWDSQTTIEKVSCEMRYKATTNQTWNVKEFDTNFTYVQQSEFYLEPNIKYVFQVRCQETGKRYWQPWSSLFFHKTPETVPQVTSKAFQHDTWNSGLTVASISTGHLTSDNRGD
In short: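 TR-FRET with IL-23α/IL-12β and IL-23R each at 0.3 nM in PPI buffer; compound preincubated with IL-23α/IL-12β 60 min at 25°C, then IL-23R and Tb/d2 detection reagents added for 60 min. HTRF 665/620 ratio; IC50 by nonlinear regression.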

IL-23R = molecular target: T2, IL-23R (Homo sapiens, UniProt Q5VWK5); experiment: IL-23R reporter gene assay (HEK-blue IL23 reporter gene cell line, rhIL23 stimulation); assay type: cell-based; conditions: Inhibition of IL-23R, rhIL23 1 ng/mL, 24 hours
T2 construct: host or cells: HEK-blue IL23 reporter gene cell line
T2 sequence (Q5VWK5 24-629): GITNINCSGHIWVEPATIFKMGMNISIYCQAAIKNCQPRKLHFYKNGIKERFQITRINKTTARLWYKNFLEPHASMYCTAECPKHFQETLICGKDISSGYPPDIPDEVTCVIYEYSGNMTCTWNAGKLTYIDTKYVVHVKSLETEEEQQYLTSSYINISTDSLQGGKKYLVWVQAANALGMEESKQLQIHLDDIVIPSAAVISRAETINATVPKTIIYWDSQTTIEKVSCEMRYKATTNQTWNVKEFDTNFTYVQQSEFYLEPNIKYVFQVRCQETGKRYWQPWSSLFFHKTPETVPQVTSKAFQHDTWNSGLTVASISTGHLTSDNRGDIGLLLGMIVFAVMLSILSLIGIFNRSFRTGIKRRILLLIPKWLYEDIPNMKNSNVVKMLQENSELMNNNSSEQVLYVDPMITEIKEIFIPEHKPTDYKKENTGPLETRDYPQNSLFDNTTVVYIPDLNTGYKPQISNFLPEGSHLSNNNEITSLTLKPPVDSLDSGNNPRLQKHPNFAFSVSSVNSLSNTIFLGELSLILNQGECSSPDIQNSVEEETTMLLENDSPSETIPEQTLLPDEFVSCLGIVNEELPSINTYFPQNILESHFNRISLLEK
Protocol: 2. IL-23R reporter gene assay
The purpose of this assay was to assess the ability of compounds to inhibit the binding of IL23p19 to IL23R in a reporter gene system. The HEK-blue IL23 reporter gene cell line (Invivogen, hkb-il23) was cultured in DMEM + 10% FBS + 100 ug/mL Normocin medium. When the cell density reached 80%-90%, 5000 cells/well were plated into a 384-well plate, and the plate was incubated overnight at 37°C with 5% CO2. Then, the compound stock solution was diluted in DMSO, and 40 nL of the dilution was transferred into the 384-well culture plate by Echo. The plate was incubated at 37°C with 5% CO2 for 0.5 hours. 40 nL/well of rhIL23 (R&D, 1290-IL) was added to the 384-well cell culture plate at a final concentration of 1 ng/mL, and the plate was incubated at 37°C with 5% CO2 for 24 hours. 18 µL of Quanti-Blue™ solution was added to a new 384-well plate. 2 µL/well of cell culture supernatant was transferred into the 384-well plate prepared in Step 6, and the plate was incubated at 37°C with 5% CO2 for 1 hour. Absorbance values at […] were read on BMG. The binding ability of the compounds was assessed using the following formula, and IC50 values were obtained by fitting with Graphpad.
(§1) Calculation formula of inhibition rate: [formula] • where Data negative: mean of DMSO control group; and • Data positive: mean of non-IL23-stimulated group
The calculation formula of IC50 was as follows: Y = Bottom + (Top−Bottom)/(1+10^(∧)((LogIC50−X)*HillSlope)) [formula] • where X: concentration of compound; and • Y: inhibition rate of compound Table 2. Inhibition of IL-23R by test compounds

[1] = molecular target: (Homo sapiens, UniProt Q5VWK5); experiment: IL-23-stimulated pSTAT3 detection assay in PBMCs (ELISA); assay type: cell-based; conditions: rhIL23 stimulation 30 minutes, read-out: pSTAT3 inhibition/IC50
Protocol: 3. IL-23-stimulated pSTAT3 detection assay in PBMCs
Cryopreserved human PBMCs were thawed, and seeded onto a plate previously covered with an anti-CD3 antibody at 1 × 10^6 cells/well. Then, an anti-CD28 antibody was added to the plate, and the cells were incubated at 37°C with 5% CO2 for 5 days. On Day 5, the cells were seeded onto a 96-well plate at a density of 100K cells/well after 4 hours of stimulation by FBS starvation. The diluted Compound was transferred into the 96-well cell culture plate, and the plate was incubated at 37°C with 5% CO2 for 1 hour. rhIL23 (R&D, 1290-IL) was added to the cell culture plate, and the plate was incubated at 37°C with 5% CO2 for 30 minutes. The cells in the wells were lysed on ice with a lysis buffer containing 1× PHOSstop solution for 30 minutes, and the plate was centrifuged at 1000 rpm for 1 minute. Then, the supernatant was transferred into a 96-well ELISA plate, and pSTAT3 ELISA assay was performed according to the instructions of the kit (CST, 7300CA). Absorbance values at […] were read on PHERAstar FSX (BMG LRBTECH). The inhibition rate of the compounds was assessed using the following formula, and IC50 values were obtained by fitting with Graphpad.
as §1
The calculation formula of IC50 was as follows: Y = Bottom + (Top−Bottom)/(1+10^(∧)((LogIC50−X)*HillSlope)) [formula] • where X: concentration of compound; and • Y: inhibition rate of compound. Table 3. pSTAT3 inhibition

Sequence of (Homo sapiens, UniProt Q5VWK5) (Q9NPF7 20-189 partner, other chains not shown): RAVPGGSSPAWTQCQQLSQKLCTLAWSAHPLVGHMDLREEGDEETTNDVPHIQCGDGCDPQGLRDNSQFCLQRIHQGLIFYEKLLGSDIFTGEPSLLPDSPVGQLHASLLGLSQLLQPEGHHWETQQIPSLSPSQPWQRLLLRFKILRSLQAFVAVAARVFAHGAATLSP
Sequence of (Homo sapiens, UniProt Q5VWK5) (P29460 23-328 partner, other chains not shown): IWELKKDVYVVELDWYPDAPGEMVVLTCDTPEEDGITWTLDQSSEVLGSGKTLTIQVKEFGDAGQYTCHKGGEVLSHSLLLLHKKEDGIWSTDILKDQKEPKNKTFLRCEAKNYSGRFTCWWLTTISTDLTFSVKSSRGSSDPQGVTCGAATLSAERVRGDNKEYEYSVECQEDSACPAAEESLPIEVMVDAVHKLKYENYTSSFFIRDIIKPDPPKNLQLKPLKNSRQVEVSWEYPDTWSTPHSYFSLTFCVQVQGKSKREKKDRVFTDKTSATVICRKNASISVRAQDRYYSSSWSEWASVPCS

Row | SMILES | IC50 (IL-23α/IL-12β and IL-23R) | IC50 (IL-23R) | IC50 [1]
1 | CC(=O)N[C@@H]1C(=O)N[C@@H](Cc2c[nH]cn2)C(=O)N[C@@H]([C@@H](C)O)C(=O)N[C@@H](Cc2c[nH]c3c(C)cccc23)C(=O)N[C@@H](CCC(N)=O)C(=O)N[C@H](C(=O)N[C@@H](Cc2ccc(OCCN)cc2)C(=O)N[C@@H](Cc2ccc3ccccc3c2)C(=O)NC2(C(=O)N[C@@H](CCC(=O)O)C(=O)N[C@@H](CC(N)=O)C(=O)N[C@@H](Cc3cccnc3)C(=O)N(C)CC(N)=O)CCOCC2)C(C)(C)SSC1(C)C [Compound 1] (Ac-[Pen]HT[Trp(7-Me)]Q[Pen][AEF][2Nal][Thp]EN[3Pal][Sar]-NH2; disulfide 1-6) | 0.0642 nM | 1.1 nM | 7.1 pM
2 | CC(=O)N[C@@H]1C(=O)N[C@@H](Cc2c[nH]cn2)C(=O)N[C@@H]([C@@H](C)O)C(=O)N[C@@H](Cc2c[nH]c3c(C)cccc23)C(=O)N[C@@H](CCCNC(N)=O)C(=O)N[C@H](C(=O)N[C@@H](Cc2ccc(OCCN)cc2)C(=O)N[C@@H](Cc2ccc3ccccc3c2)C(=O)NC2(C(=O)N[C@@H](CCC(=O)O)C(=O)N[C@@H](CC(N)=O)C(=O)N[C@@H](Cc3cccnc3)C(=O)N(C)CC(N)=O)CCOCC2)C(C)(C)SSC1(C)C [Compound 2] (Ac-[Pen]HT[Trp(7-Me)][Cit][Pen][AEF][2Nal][Thp]EN[3Pal][Sar]-NH2; disulfide 1-6) | 0.0768 nM | 1.21 nM | 6.8 pM
3 | CC(=O)NCCCC[C@@H]1NC(=O)[C@H](Cc2c[nH]c3c(C)cccc23)NC(=O)[C@H]([C@@H](C)O)NC(=O)[C@H](Cc2c[nH]cn2)NC(=O)[C@@H](NC(C)=O)C(C)(C)SSC(C)(C)[C@@H](C(=O)N[C@@H](Cc2ccc(OCCN)cc2)C(=O)N[C@@H](Cc2ccc3ccccc3c2)C(=O)NC2(C(=O)N[C@@H](CCC(=O)O)C(=O)N[C@@H](CC(N)=O)C(=O)N[C@@H](Cc3cccnc3)C(=O)N(C)CC(N)=O)CCOCC2)NC1=O [Compound 3] (Ac-[Pen]HT[Trp(7-Me)]K(Ac)[Pen][AEF][2Nal][Thp]EN[3Pal][Sar]-NH2; disulfide 1-6) | 0.174 nM | 1.36 nM | 6.6 pM
